Source: ChEMBL document CHEMBL3877318, “Cystatin C peptidomimetic derivative with antimicrobial properties as a potential compound against wound infections” (Bioorg Med Chem, 2017)
The source made the active and inactive calls. The rule behind the calls is not given here.

Test system: PBMC
Experiment: Inhibition of LPS-stimulated TNF-alpha release in human PBMC at 600 ng/ml after 20 hrs by ELISPOT test
Assay type: functional, cell-based

With `C[C@@H]1C[C@H]2[C@@H]3CCC4=CC(=O)C=C[C@]4(C)[C@@]3(F)[C@@H](O)C[C@]2(C)[C@@]1(O)C(=O)CO` the inhibition was “Active”.
